The record followed here is PMC4049574 (PLoS ONE, 2014).

As usually defined, the IC50 is the point on the concentration scale where inhibition reaches its midpoint.

In assay [1] the target is T1, human mitochondrial NAD(P)+-dependent malic enzyme (m-NAD(P)-ME, ME2) (Homo sapiens, UniProt P23368). Nature of the assay: spectrophotometric NADH assay at […] nm; fumarate competition/rescue; allosteric-site mutant controls. Format: biochemical.
Assay [2] has as its target T1, human mitochondrial NAD(P)+-dependent malic enzyme (m-NAD(P)-ME, ME2). Nature of the assay: enzyme activation assay ([…] nm), purified enzyme; allosteric-site mutant controls. The conditions noted are these: read-out: ^3 ^, ^4m-NAD(P)-ME WT.

Counter-ions that a name gives are not always drawn.

T1 sequence (P23368 19-584): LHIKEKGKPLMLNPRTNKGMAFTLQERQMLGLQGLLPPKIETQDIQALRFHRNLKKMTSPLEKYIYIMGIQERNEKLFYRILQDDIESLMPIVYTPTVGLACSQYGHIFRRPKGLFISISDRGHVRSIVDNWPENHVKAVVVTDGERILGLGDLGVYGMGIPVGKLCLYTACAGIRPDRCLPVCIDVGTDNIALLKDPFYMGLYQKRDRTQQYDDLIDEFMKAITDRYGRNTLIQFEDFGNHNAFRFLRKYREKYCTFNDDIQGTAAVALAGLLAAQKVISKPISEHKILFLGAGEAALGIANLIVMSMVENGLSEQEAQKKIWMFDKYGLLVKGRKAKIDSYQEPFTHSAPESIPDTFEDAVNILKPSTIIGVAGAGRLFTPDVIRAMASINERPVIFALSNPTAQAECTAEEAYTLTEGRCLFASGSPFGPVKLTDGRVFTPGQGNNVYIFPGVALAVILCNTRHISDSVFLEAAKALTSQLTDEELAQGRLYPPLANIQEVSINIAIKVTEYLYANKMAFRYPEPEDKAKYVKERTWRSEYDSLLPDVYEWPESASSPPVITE

With `CCOC(=O)/C=C(\O)C(=O)OCC` [diethyl oxalacetate], the IC50 in assay [1] was approximately 2500 µM.

With `CCOC(=O)/C=C/C(=O)O` [Monoethyl fumarate], the fold induction at 10000 µM in assay [2] was determined as 1.83 ± 0.04.

With `C/C(=C\C(=O)O)C(=O)O` [Mesaconate], in assay [2], the fold induction at 20000 µM came out at 1.75 ± 0.16.

As to `COC(=O)/C=C/C(=O)O` [Monomethyl fumarate], the fold induction at 5000 µM in assay [2] was determined as 2.78 ± 0.08.
